Where a SMILES comes first, the peptide text is derived from it. The star is where a group is joined. NOTA = O=C(O)CN1CCN(CC(=O)O)CCN(CC(=O)*)CC1; AEEA = NCCOCCOCC(=O)O
Tests used:
[1] = Micro-PET/CT biodistribution in SNU-16 xenografts; assay type: in vivo, BALB/c nude mice; conditions: female, BALB/c nude, mouse, iv, total radioactivity, 11.1 MBq tail vein, micro-PET/CT ROI, mean ± SD; for tissue uptake at 0.5 h: 30 min post-injection; for tissue uptake at 1 h: 60 min post-injection; for tissue uptake at 2 h: 120 min post-injection
Description: (§1) All animal experiments were carried out in accordance with the Laboratory Animal Ethical Review of Animal Guidelines of China. BALB/c nude mice (sex, female; age, 4 weeks, body weight range, 19-21 g; China) were used for this study. Four cell lines (2*10^7 cells/nude mouse) were subcutaneously injected into the right forelimb to induce solid tumors. All xenograft nude mice were housed in laminar flow cabinets in a specific pathogen-free (SPF) environment and were provided ad libitum access to food and water at the Laboratory Animal Center of the Fourth Hospital of Hebei Medical University (China). The indication for micro-PET/CT imaging was xenografts with a tumor volume of 50-130 mm^3. All animal experiments strictly adhered to the Principles of the Laboratory Animal Ethical Committee of the Fourth Hospital Hebei Medical University (No. 2020016).
(§2) Xenograft mice (n=5) were fastly injected of 200 µl of [^18F]F-FGFR1 (11.1 MBq) through tail vein. For the in vivo blocking study, RT-112 (FGFR1-high expression) tumor-bearing mice (n = 5) were injected with a tracer that was mixed with 200-fold (1.58 mg) unlabeled peptide to saturate the receptors in the tumors. Mice were anesthetized via 3% isoflurane inhalation (RWD Life Science Inc. China) for induction and 2% isoflurane inhalation for maintenance. Micro-PET/CT imaging was performed on a micro-PET/SPECT/CT machine (NOVEL MEDICAL Equipment Ltd. China). Whole-body scans were performed 30, 60 and 120 min after tracer administration. The CT scanning parameters were 80 kV, 0.5 mA, 2000 ms/frames, and 360 frames; the images were reconstructed with a 512*512 matrix and a slice thickness of 0.18 mm. PET images were acquired with a 140*140 matrix and 10 min of total acquisition time. Reconstructed images were processed with the comprehensive image analysis software Pmod v4.201 (PMOD Technologies LLC. Switzerland). The biodistribution of the major organs (brain, heart, lung, liver, kidney, bone and muscle) and tumor were analyzed by manually outlining the regions of interest (ROIs) of the entire organs and tissue at each time point of the micro-PET/CT scan. The radioactivity accumulated in bone and muscle was measured in the limbs without xenograft tumors.

[2] = tested on: RT-112 cells (FGFR1-high expression); assay: Cellular uptake and blocking study; assay type: cell-based, human
Description: RT-112, A549, SNU-16 and Calu-3 cells were cultured at a density of 1*10^5 cells per well in 24-well plates the day before cellular uptake experiments. Cells were rinsed twice with 1000 µl of phosphate-buffered saline (PBS) (BI, Israel), followed by 1000 µl of growth medium. Then, 30 µl (111 KBq, 1.81-2.53 GBq/μmol) of [^18F]F-FGFR1 was added to each well, and the cells were incubated with the peptide for 15, 30, 60 and 120 min. At each cutoff time, 6 wells of supernatant were collected. The collected wells were washed twice with 1000 µl of PBS. Radioactivity counts were marked as Cout. […] After 500 µl of trypsin-EDTA digestion of the adherent cells and washed twice with 1000 µl of PBS, the collected cells were defined as Cin. Radioactivity was counted with an automatic γ counter. The formula for the cell uptake rate was as follows: Cin/(Cin + Cout).
To determine the specific binding of [^18F]F-FGFR1 with FGFR1 on the cell surface, 200-fold unlabeled peptide (220 µg) and 30 µl of [^18F]F-FGFR1 (111 KBq) were added to RT-112 cells at the same time. The supernatants were removed after 120 min of incubation. The subsequent steps of cell collection and radioactivity detection were performed as described above. The cell uptake rate was calculated by Cin/(Cin + Cout).

[3] = Micro-PET/CT biodistribution in RT-112 xenografts; assay type: in vivo, BALB/c nude mice; conditions: female, BALB/c nude, mouse, iv, total radioactivity, 11.1 MBq tail vein, micro-PET/CT ROI, mean ± SD; for tissue uptake at 0.5 h: 30 min post-injection; for tissue uptake at 1 h: 60 min post-injection; for tissue uptake at 2 h: 120 min post-injection
Description: as §1, §2

[4] = tested on: RT-112, A549, SNU-16 and Calu-3 cells; assay: Cellular internalization study; assay type: cell-based, human; conditions: acid wash with acetate buffer pH 2.5, four cell lines, P > 0.5, n = 6
Description: Internalization studies were performed according to the planned experiments. Thirty microliters (111 KBq, 1.81-2.53 GBq/μmol) of [^18F]F-FGFR1 was incubated with fresh medium in 24-well plates. The medium was discarded at predetermined time points, and the wells were rinsed twice with 1000 µl of PBS. Then, 1000 µl of acetate buffer (0.2 M acetic acid/0.5 M NaCl, pH 2.5) was added to the wells to remove surface-bound radioactivity. After removing the acetate buffer, the cells were washed twice with 1000 µl of PBS. The acetate buffer and PBS were collected and marked as Cs. The radioactivity of the collected cell lysate was measured and defined as Cin. The internalization rate was assessed in a similar method to the cell uptake rate calculation: Cin/(Cin + Cs).

[5] = bone, n=5, read-out: Biodistribution, Bone
[6] = brain, n=5, read-out: Biodistribution, Brain
[7] = heart, n=5, read-out: Biodistribution, Heart
[8] = kidney, n=5, read-out: Biodistribution, Kidney
[9] = liver, n=5, read-out: Biodistribution, Liver
[10] = lung, n=5, read-out: Biodistribution, Lung
[11] = muscle, n=5, read-out: Biodistribution, Muscle
[12] = tumor, n=5, read-out: Biodistribution, Tumor

CC(C)C[C@H](NC(=O)[C@H](CO)NC(=O)[C@H](CCCCN)NC(=O)[C@H](Cc1c[nH]c2ccccc12)NC(=O)[C@H](CCC(=O)O)NC(=O)[C@H](C)NC(=O)[C@H](CCCCN)NC(=O)COCCOCCNC(=O)CN1CCN(CC(=O)O)CCN(CC(=O)O)CC1)C(=O)NCC(=O)N[C@@H](CCC(=O)O)C(=O)N[C@@H](CCC(=O)O)C(=O)N[C@@H](C)C(=O)N[C@@H](Cc1c[nH]c2ccccc12)C(=O)N[C@@H](Cc1c[nH]cn1)C(=O)N[C@@H](CO)C(=O)N[C@@H](CCCCN)C(=O)O [[^18F]F-FGFR1] ({NOTA-AEEA}-KAEWKSLGEEAWHSK-OH; N-terminus and C-terminus assumed)
tissue uptake at 0.5 h [1, 5]: 0.38 ± 0.1 %ID/g
tissue uptake at 1 h [1, 5]: 0.37 ± 0.05 %ID/g
tissue uptake at 2 h [1, 5]: 0.41 ± 0.02 %ID/g
tissue uptake at 0.5 h [1, 6]: 0.56 ± 0.06 %ID/g
tissue uptake at 1 h [1, 6]: 0.6 ± 0.07 %ID/g
tissue uptake at 2 h [1, 6]: 0.56 ± 0.1 %ID/g
tissue uptake at 0.5 h [1, 7]: 0.7 ± 0.09 %ID/g
tissue uptake at 1 h [1, 7]: 0.62 ± 0.09 %ID/g
tissue uptake at 2 h [1, 7]: 0.55 ± 0.06 %ID/g
tissue uptake at 0.5 h [1, 8]: 8.04 ± 0.97 %ID/g
tissue uptake at 1 h [1, 8]: 7.43 ± 0.83 %ID/g
tissue uptake at 2 h [1, 8]: 4.23 ± 0.7 %ID/g
tissue uptake at 0.5 h [1, 9]: 1.54 ± 0.11 %ID/g
tissue uptake at 1 h [1, 9]: 1.57 ± 0.12 %ID/g
tissue uptake at 2 h [1, 9]: 1.45 ± 0.1 %ID/g
tissue uptake at 0.5 h [1, 10]: 0.67 ± 0.08 %ID/g
tissue uptake at 1 h [1, 10]: 0.6 ± 0.03 %ID/g
tissue uptake at 2 h [1, 10]: 0.46 ± 0.09 %ID/g
tissue uptake at 0.5 h [1, 11]: 0.27 ± 0.06 %ID/g
tissue uptake at 1 h [1, 11]: 0.27 ± 0.03 %ID/g
tissue uptake at 2 h [1, 11]: 0.31 ± 0.02 %ID/g
tissue uptake at 0.5 h [1, 12]: 0.66 ± 0.05 %ID/g
tissue uptake at 1 h [1, 12]: 0.6 ± 0.06 %ID/g
tissue uptake at 2 h [1, 12]: 0.45 ± 0.04 %ID/g
Cellular uptake in RT-112 versus A549, SNU-16 and Calu-3 cells ([2]; 15, 30, 60 and 120 min incubation, P < 0.001, n = 6): consistently higher in RT-112 cell line
Cell uptake rate Cin/(Cin + Cout), blocked ([2]; RT-112 cells, 111 KBq tracer with 200-fold excess unlabeled peptide (220 µg), 120 min, mean ± SD, n = 6): 0.24 ± 0.05
Cell uptake rate Cin/(Cin + Cout) ([2]; RT-112 cells, 111 KBq tracer, 120 min incubation, γ counter, mean ± SD, n = 6): 5.11 ± 0.63
tissue uptake at 0.5 h [3, 5]: 0.33 ± 0.1 %ID/g
tissue uptake at 1 h [3, 5]: 0.35 ± 0.12 %ID/g
tissue uptake at 2 h [3, 5]: 0.48 ± 0.23 %ID/g
tissue uptake at 0.5 h [3, 6]: 0.66 ± 0.05 %ID/g
tissue uptake at 1 h [3, 6]: 0.69 ± 0.03 %ID/g
tissue uptake at 2 h [3, 6]: 0.03 ± 0.01 %ID/g
tissue uptake at 0.5 h [3, 7]: 1.02 ± 0.11 %ID/g
tissue uptake at 1 h [3, 7]: 0.75 ± 0.06 %ID/g
tissue uptake at 2 h [3, 7]: 0.1 ± 0.03 %ID/g
tissue uptake at 0.5 h [3, 8]: 9.44 ± 0.58 %ID/g
tissue uptake at 1 h [3, 8]: 6.85 ± 0.77 %ID/g
tissue uptake at 2 h [3, 8]: 19 ± 4.82 %ID/g
tissue uptake at 0.5 h [3, 9]: 1.35 ± 0.23 %ID/g
tissue uptake at 1 h [3, 9]: 1.43 ± 0.06 %ID/g
tissue uptake at 2 h [3, 9]: 0.17 ± 0.08 %ID/g
tissue uptake at 0.5 h [3, 10]: 0.75 ± 0.11 %ID/g
tissue uptake at 1 h [3, 10]: 0.65 ± 0.09 %ID/g
tissue uptake at 2 h [3, 10]: 0.14 ± 0.05 %ID/g
tissue uptake at 0.5 h [3, 11]: 0.24 ± 0.05 %ID/g
tissue uptake at 1 h [3, 11]: 0.28 ± 0.03 %ID/g
tissue uptake at 2 h [3, 11]: 0.09 ± 0.02 %ID/g
tissue uptake at 0.5 h [3, 12]: 3.84 ± 0.17 %ID/g
tissue uptake at 1 h [3, 12]: 2.6 ± 0.1 %ID/g
tissue uptake at 2 h [3, 12]: 1.35 ± 0.07 %ID/g
Internalization fraction Cin/(Cin + Cs) [4]: not significantly different in the four cell lines

Reference: paper PMC10174317, “^18F-labeled FGFR1 peptide: a new PET probe for subtype FGFR1 receptor imaging” (Frontiers in Oncology, 2023)
